The target in experiment [1] is T1, PDK1 (Homo sapiens, UniProt O15530).
T1 construct: His6 (N)
T1 sequence (O15530 51-556 limits assumed): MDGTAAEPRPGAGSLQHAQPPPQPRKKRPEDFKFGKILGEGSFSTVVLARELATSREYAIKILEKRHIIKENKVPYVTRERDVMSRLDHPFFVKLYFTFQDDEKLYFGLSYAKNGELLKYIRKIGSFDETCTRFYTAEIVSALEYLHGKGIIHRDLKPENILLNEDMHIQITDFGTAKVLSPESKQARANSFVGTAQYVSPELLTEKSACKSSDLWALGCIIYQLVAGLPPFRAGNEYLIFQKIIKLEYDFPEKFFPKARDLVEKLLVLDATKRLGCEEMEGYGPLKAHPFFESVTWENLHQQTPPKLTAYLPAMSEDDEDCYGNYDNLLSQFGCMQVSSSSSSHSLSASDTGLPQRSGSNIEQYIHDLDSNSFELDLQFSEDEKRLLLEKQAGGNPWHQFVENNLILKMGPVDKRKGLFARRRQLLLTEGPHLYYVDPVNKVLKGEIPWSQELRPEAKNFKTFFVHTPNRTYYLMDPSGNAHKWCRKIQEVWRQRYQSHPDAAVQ
As to the kind of experiment: Test for the inhibition of PDK1 (flashplate, 33P-ATP). It is filed as biochemical. The conditions noted are these: His6-PDK1(1-50) 3.4 nM, 4 μM ATP, 30° C., 60 min. Here is the method:
The experimental batches are carried out in a flashplate system with 384 wells/microtitration plate.
In each case, the PDK1 sample His6-PDK1(1-50)(3.4 nM), the PDK1 substrate biotin-bA-bA-[…] (400 nM), 4 μM ATP (with 0.2 μCi of ^33P-ATP/well) and the test substance in 50 μl of conventional experimental solution per well are incubated at 30° C. for 60 min. The test substances are employed in corresponding concentrations (if desired in a dilution series). The control is carried out without test substance. The reaction is stopped using standard methods and washed. The activity of the kinase is measured via the incorporated radioactivity in top count. In order to determine the non-specific kinase reaction (blank value), the experimental batches are carried out in the presence of 100 nM staurosporin.
The radioactivity (decompositions per minute) of the blank value (no use of test substance in the presence of staurosporin) is subtracted from all other radioactivity values. The controls (kinase activity without test substance) are set equal to 100 percent and all other radioactivity values (after subtracting the blank value) are expressed set in relation thereto (for example in % of the control).
[formula] IC50 values (50% inhibition) are determined with the aid of statistics pro-grammes, such as, for example, RS1.

Experiment [2] relates to phospho-T308-PKB in PC3 cells. In words: Cellular testing of PDK1 kinase inhibitors in PC3 cells (Luminex, phospho-T308-PKB). It is filed as cell-based. The conditions noted are these: Homo sapiens. On the procedure: Method for the Cellular Testing of PDK1 Kinase Inhibitors in PC3 Cells.
The cellular assay for the determination of the PDK1 kinase activity is carried out as a Luminex assay in the 96-well format. PC3 cells are sown at 20,000 cells per well in 100 μl of medium (45% of […]/45% of Ham's F12/10% of FCS) and incubated on the following day for 30 min with a serial dilution of the test substance (7 concentrations) under serum-free conditions. The cells are subsequently lysed using 90 μl of lysis buffer (20 mM tris/HCl pH 8.0, 150 mM NaCl, 1% of NP40, 10% of glycerol, 1% of phosphatase inhibitor I, 1% of phosphatase inhibitor II, 0.1% of protease inhibitor cocktail 111, 0.01% of benzonase) per well, and the lysates are separated off from insoluble cell constituents by means of centrifugation through a 96-well filter plate (0.65 μm). The lysates are incubated overnight at 4° C. with shaking with Luminex beads to which an anti-total PKB antibody is coupled. The detection is carried out on the following day by addition of a phospho-T308-PKB antibody and a species-specific […] secondary antibody. The detection of phospho-T308-PKB is carried out by measurement in a Luminex100 instrument by determination of 100 events per cavity in a measurement time of 60 sec. As pharmacological blank, the signals obtained from cells which have been treated with 10 μM staurosporin are subtracted from all other batches. The control value used for maximum phosphorylation of PKB on T308 are the signals from cells which have only been treated with the solvent (0.3% of DMSO). The values of the batches treated with test substance are calculated therefrom as percentage of control, and IC50 values are determined by means of RS1.

The mark [3] stands for this setting: PC-3, cellular assay, cell line not named, read-out: IC50 [cell].

Each structure is given as a SMILES string. pIC50: −log10 of the molar value. Where two headings read alike, the source gives them in different places.

This note sets out measurements from patent US8999986B2, “Pyrrolo [2,3—D] pyrazin—7—ylpyrimidine compounds” (Merck Patent GmbH, priority 2009, dated 2015).

With `CCC(OCOC)(c1cc(-c2c[nH]c3ncc(-c4cnn(C)c4)nc23)nc(N)n1)c1ccncc1F` (stereo not drawn) [A27, 4-[1-(3-Fluoropyridin-4-yl)-1-methoxymethoxypropyl]-6-[2-(1-methyl-1H-pyrazol-4-yl)-5H-pyrrolo[2,3-b]pyrazin-7-yl]pyrimidin-2-ylamine], the pIC50 in experiment [1] is 7.05; in experiment [2] (setting [3]), 6.22.

Consider `COCOC(C)(c1cccc(F)c1)c1cc(-c2c[nH]c3ncc(-c4cnn(C)c4)nc23)nc(N)n1` (stereo not drawn) [A2, 4-[1-(3-fluorophenyl)-1-methoxymethoxyethyl]-6-[2-(1-methyl-1H-pyrazol-4-yl)-5H-pyrrolo[2,3-b]pyrazin-7-yl]pyrimidin-2-ylamine], for which the pIC50 in experiment [1] is 6.92; in experiment [2] (PC-3, 0.5 h, PC3 cells, 30 min with test substance, serum-free, read-out: IC50 [P-PKB T308]), 6.09.

For `CCC(O)(c1ccncc1)c1cc(-c2c[nH]c3ncc(-c4cnn(C)c4)nc23)nc(N)n1` (stereo not drawn) [A28, 1-{2-Amino-6-[2-(1-methyl-1H-pyrazol-4-yl)-5H-pyrrolo[2,3-b]pyrazin-7-yl]-pyrimidin-4-yl}-1-pyridin-4-ylpropan-1-ol], the pIC50 in experiment [1] is 7.77; in experiment [2] (setting [3]), 6.80.

As for `Cn1cc(-c2cnc3[nH]cc(-c4cc(C(C)(O)c5cccc(F)c5)nc(N)n4)c3n2)cn1` (stereo not drawn) [A3, 1-{2-amino-6-[2-(1-methyl-1H-pyrazol-4-yl)-5H-pyrrolo[2,3-b]pyrazin-7-yl]-pyrimidin-4-yl}-1-(3-fluorophenyl)ethanol], the pIC50 is 7.15 in experiment [1] and 6.28 in experiment [2] (setting [3]).

`CC[C@@](O)(c1cccc(F)c1)c1cc(-c2c[nH]c3ncc(-c4cnn(C)c4)nc23)nc(N)n1` (single isomer, unassigned) [A30]: the pIC50 in experiment [1] is 7.74; in experiment [2] (setting [3]), 7.68.

For `CCC(O)(c1cccc(F)c1)c1cc(-c2c[nH]c3ncc(-c4cnn(C)c4)nc23)nc(N)n1` (stereo not drawn) [A25, 1-{2-Amino-6-[2-(1-methyl-1H-pyrazol-4-yl)-5H-pyrrolo[2,3-b]pyrazin-7-yl]-pyrimidin-4-yl}-1-(3-fluorophenyl)propan-1-ol], the results for the pIC50 in experiment [1] and in experiment [2] (setting [3]) were 7.44 and 6.96, respectively.

Consider `CCC(O)(c1cc(-c2c[nH]c3ncc(-c4cnn(C)c4)nc23)nc(N)n1)c1ccncc1F` (stereo not drawn) [A26, 1-{2-Amino-6-[2-(1-methyl-1H-pyrazol-4-yl)-5H-pyrrolo[2,3-b]pyrazin-7-yl]-pyrimidin-4-yl}-1-(3-fluoropyridin-4-yl)propan-1-ol], for which the pIC50 is 7.36 in experiment [1] and 6.24 in experiment [2] (setting [3]).

Turning to `Cn1cc(-c2cnc3[nH]cc(-c4cc(C(C)(O)c5ccccc5F)nc(N)n4)c3n2)cn1` (stereo not drawn) [A6, 1-{2-Amino-6-[2-(1-methyl-1H-pyrazol-4-yl)-5H-pyrrolo[2,3-b]pyrazin-7-yl]-pyrimidin-4-yl}-1-(2-fluorophenyl)ethanol], the results for the pIC50 in experiment [1] and in experiment [2] (setting [3]) were 7.51 and 6.72, respectively.

In the case of `CCC(O)(c1cc(-c2c[nH]c3ncc(-c4cnn(C)c4)nc23)nc(N)n1)c1ccccc1F` (stereo not drawn) [A24, 1-{2-Amino-6-[2-(1-methyl-1H-pyrazol-4-yl)-5H-pyrrolo[2,3-b]pyrazin-7-yl]-pyrimidin-4-yl}-1-(2-fluorophenyl)propan-1-ol], the results for the pIC50 in experiment [1] and in experiment [2] (setting [3]) were 7.27 and 7.04, respectively.

As to `COCOC(C)(c1ccccc1)c1cc(-c2c[nH]c3ncc(-c4cnn(C)c4)nc23)nc(N)n1` (stereo not drawn) [A5, 4-(1-Methoxymethoxy-1-phenylethyl)-6-[2-(1-methyl-1H-pyrazol-4-yl)-5H-pyrrolo[2,3-b]pyrazin-7-yl]pyrimidin-2-ylamine], the pIC50 was 7.05 in experiment [1] and 6.38 in experiment [2] (setting [3]).

Regarding `CC(C)n1cc(-c2cnc3[nH]cc(-c4cc(C(C)(O)c5ccccc5F)nc(N)n4)c3n2)cn1` (stereo not drawn) [A33, 1-{2-Amino-6-[2-(1-isopropyl-1H-pyrazol-4-yl)-5H-pyrrolo[2,3-b]pyrazin-7-yl]-pyrimidin-4-yl}-1-(2-fluorophenyl)ethanol], the pIC50 in experiment [1] is 6.46; in experiment [2] (setting [3]) it was 6.60.

For `Cn1cc(-c2cnc3[nH]cc(-c4cc([C@@](C)(O)c5ccccc5F)nc(N)n4)c3n2)cn1` (single isomer, unassigned) [A8], the pIC50 is 7.37 in experiment [1] and 6.24 in experiment [2] (setting [3]).

In the case of `Cn1cc(-c2cnc3[nH]cc(-c4cc([C@](C)(O)c5ccccc5F)nc(N)n4)c3n2)cn1` (single isomer, unassigned) [A9], the pIC50 was 7.33 in experiment [1] and 6.82 in experiment [2] (setting [3]).

With `Cn1cc(-c2cnc3[nH]cc(-c4cc(C(C)(O)c5ccccc5)nc(N)n4)c3n2)cn1` (stereo not drawn) [A4, 1-{2-Amino-6-[2-(1-methyl-1H-pyrazol-4-yl)-5H-pyrrolo[2,3-b]pyrazin-7-yl]-pyrimidin-4-yl}-1-phenylethanol], the pIC50 in experiment [1] is 7.26; in experiment [2] (setting [3]), 6.24.

Take `COCOC(C)(c1cc(-c2c[nH]c3ncc(-c4cnn(C)c4)nc23)nc(N)n1)c1ccccc1F` (stereo not drawn) [A7, 4-[1-(2-Fluorophenyl)-1-methoxymethoxyethyl]-6-[2-(1-methyl-1H-pyrazol-4-yl)-5H-pyrrolo[2,3-b]pyrazin-7-yl]pyrimidin-2-ylamine]: the pIC50 in experiment [1] was 7.11; in experiment [2] (setting [3]), 6.59.

As to `CC[C@](O)(c1cc(-c2c[nH]c3ncc(-c4cnn(C)c4)nc23)nc(N)n1)c1ccccc1F` (single isomer, unassigned) [A32], the pIC50 in experiment [1] is 7.02; in experiment [2] (setting [3]), 8.54.

As to `CC[C@@](O)(c1cc(-c2c[nH]c3ncc(-c4cnn(C)c4)nc23)nc(N)n1)c1ccccc1F` (single isomer, unassigned) [A31], the pIC50 is 7.62 in experiment [1] and 8.32 in experiment [2] (setting [3]).

For the molecule `CC[C@](O)(c1cccc(F)c1)c1cc(-c2c[nH]c3ncc(-c4cnn(C)c4)nc23)nc(N)n1` (single isomer, unassigned) [A29], the pIC50 in experiment [1] was 7.05; in experiment [2] (setting [3]), 8.66.
